Like-named read-outs stand apart in the source and are kept apart here.
Tests used:
C6 glioma cells [1] = test: MTT cell viability of BCH and of THC-di-Phe with or without LAT1 inhibitor BCH; assay type: cell-based; details: 24 h
Description: To investigate the role of THC-conjugated amino acid conjugates on LAT1, THC-amino acid conjugates were co-incubated with an inhibitor of LAT1 (BCH). The cells were seeded overnight at 2 × 10^4 cells/well in 96-well plates. Initially, the cells were treated with different concentrations of BCH (5, 10, and 20 mM) for 24 h, followed by the MTT assay to identify the maximum non-toxic concentration of BCH. Then, the cells were treated with THC-di-Phe at 12.5, 25, and 50 μM concentrations with or without 5 mM BCH for 24 h. The cell viability was measured by MTT assay.

LAT1 = system: LAT1; parameters: method as in PMID 18520037; details: BCH 3 mM, C6 glioma cells; cited from earlier work
C6 glioma cells [2] = system: C6 glioma cells; parameters: method as in PMID 18520037; details: cited from earlier work
C6 glioma cells [3] = test: Cell scratch (wound closure, migration) assay; assay type: cell-based; details: 10 µM, % of wound closure compared to 0 h; for wound closure at 24 h: control 71.4%; for wound closure at 48 h: control 100%
Description: Properties of cell migration were assayed using a cell scratch assay. Briefly, the cells were seeded in 24-well plates at a concentration of 100,000 cells/well, followed by treatment of the cells using 10 µM THC and 10 µM THC-di-Phe. The cell layers were then scrapped with a 200 µL pipette tip to form a wound. The ability of the cells to close the wound was observed under an inverted microscope (Nikon TS2, Tokyo, Japan) at 0, 24, and 48 h post-treatment. Wound closure was further analyzed using ImageJ software (version 1.53e, Wayne Rasband and contributors, National Institutes of Health, USA).

P70S6K/S6 pathway = test: Western blot of P70S6K and S6 phosphorylation; assay type: cell-based; details: 10 µM, C6 cells, 8, 16 and 24 h post-treatment
Description: C6 cells were seeded in a 6-well plate with a density of 1 × 10^6 cells for 24 h. The cells were treated with THC and THC-di-Phe for 8, 16, and 24 h. The cells were washed in ice-cold phosphate-buffered saline (PBS) and lysed with ice-cold lysis buffer containing protease and phosphatase inhibitors. The cells in the lysis buffer were centrifuged at 14,000 rpm at 4 °C for 10 min. The protein concentration in the supernatant was quantified using Pierce™ BCA protein assay. After the quantification, equal amounts of protein were resolved by SDS–PAGE and transferred into a nitrocellulose membrane. The membranes were then blocked with 5% dry milk and probed with primary antibody including p70S6K, p-p70S6K, S6, p-S6 (Cell Signaling Technology (Beverly, MA, USA), followed by adding the species-specific horseradish […] conjugated secondary antibody (Cell Signaling Technology (Beverly, MA, USA). The membrane was incubated with a chemiluminescent detection kit solution, followed by X-ray film imaging to visualize protein levels. The level of phosphorylation of each protein was normalized to its normal form.

BJ fibroblast cells = test: MTT cytotoxicity in normal BJ fibroblast cells; assay type: cell-based; details: 24 h treatment
Description: (§1) C6 glioma cells and BJ fibroblast cells (ATCC, Manassas, VA, USA) were used as models for brain cancer and normal cells, respectively. The cells were cultured in DMEM media (Sigma–Aldrich, St. Louis, MO, USA) supplemented with 10% fetal bovine serum (Merck Millipore, Burlington, MA, USA) and 1% penicillin-streptomycin (Caisson Labs, Smithfield, UT, USA). The cells were maintained in an incubator with 5% CO2 at 37 °C and 95% humidity.
(§2) Cell viability was assessed using the 3-(4,5-dimethylthiazol-2-yl)-2,5-diphenyltetrazolium bromide (MTT) assay (Sigma–Aldrich, St. Louis, MO, USA). Cells were seeded in 96-well plates at a density of 2 × 10^4 cells/well and incubated for 24 h. The cells were then treated with various concentrations of THC and equimolar concentrations of THC-amino acid conjugates (0, 31.25, 62.5, 125, 250, and 500 μM) for 24 and 48 h in cancer cells, and for 24 h in normal cells. After treatment, the media were removed and replaced with MTT solution (0.5 mg/mL), followed by incubation for 3 h. The resulting formazan crystals were dissolved in DMSO (Sigma–Aldrich, St. Louis, MO, USA). Absorbance was measured using a microplate reader at a wavelength of 570 nm (CLARIOstar®, BMG Labtech, Ortenberg, Germany).

C6 glioma cells [4] = test: Annexin V/PI double staining by flow cytometry; assay type: cell-based; details: 20 μM, 24 h, mean ± S.D., n = 3
Description: Annexin V/PI staining by flow cytometry was performed to indicate the stage of cell fate, including necrosis, early and late apoptosis, and viable cells. Briefly, the cells were treated with the THC and THC-di-Phe at 20 µM. After 24 h, the cells were harvested and further analyzed by flow cytometry. Annexin V/PI staining by flow cytometry was performed according to the manufacturer’s instructions (BioLegend, San Diego, CA, USA).

C6 glioma cells [5] = test: MTT cytotoxicity in C6 glioma cells; assay type: cell-based
Description: as §1, §2

C6 cells = test: Cell proliferation assay (MTT); assay type: cell-based; details: 10 µM, 24 h and 48 h post-treatment
Description: The effects of THC-di-Phe on cell cancer proliferation were assessed using a cell proliferation assay. Briefly, C6 cells were seeded in a 96-well plate at a concentration of 5000 cells/well and then incubated overnight. Cells were then incubated with 10 µM THC and THC-di-Phe for 24 and 48 h. The morphology of the cells was observed under a light microscope. Then, the cells were incubated with MTT solution (0.5 mg/mL), and the formed formazan crystals were dissolved in DMSO. The absorbance was measured using a microplate reader (CLARIOstar®, BMG Labtech, Ortenberg, Germany) at the wavelength of 570 nm.

C6 glioma cells [6] = test: Hoechst 33342/PI double staining assay (apoptosis and necrosis); assay type: cell-based; details: 20 and 40 µM and higher concentrations
Description: Apoptosis and necrosis were assessed using the Hoechst 33342/PI double staining assay (Sigma–Aldrich, St. Louis, MO, USA). After treatment, the cells were viewed using a fluorescence microscope (Olympus IX51 inverted microscope, Tokyo, Japan). Hoechst 33342 dye stains cells with blue color, either dead or alive. Apoptotic cells are indicated by condensed and fragmented chromatin. Propidium iodide (PI) stains cells in red, which can only stain damaged cells and is used as an indicator of cellular necrosis.

C6 glioma cells [7] = test: MTT cytotoxicity in C6 glioma cells; assay type: cell-based; details: tested at 5 to 40 µM, Supplementary Figure S29
[8] = 24 h treatment, read-out: IC50 at 24 h, C6 cells
[9] = 48 h treatment, read-out: IC50 at 48 h, C6 cells

Compound | wound closure at 24 h (C6 glioma cells [3]) [%] | wound closure at 48 h (C6 glioma cells [3]) [%] | phosphorylation of P70S6K and S6 compared to control (P70S6K/S6 pathway) | necrotic cell death (C6 glioma cells [4]) [%] | percentage of late apoptotic cells (C6 glioma cells [4]) [%] | IC50 (C6 glioma cells [5]; [8]) [µM] | IC50 (C6 glioma cells [5]; [9]) [µM] | proliferation ability of C6 cells compared to the control (C6 cells) | IC50 (BJ fibroblast cells) [µM] | other results
NC1(C(=O)O)CC2CCC1C2 (centres unmarked) [BCH, 2-Aminobicyclo-(2,2,1)-heptane-2-carboxylic acid] |  |  |  |  |  |  |  |  |  | maximum non-toxic concentration (C6 glioma cells [1]; C6 glioma cells, MTT): 5 mM; inhibition of LAT1 activity (LAT1): completely inhibit; cytotoxicity at 3 mM (C6 glioma cells [2]; BCH 3 mM, 24 h incubation): no significant cytotoxicity; cytotoxicity at 10 mM (C6 glioma cells [2]; BCH 10 mM): significant toxicity
COc1cc(CCC(=O)CC(=O)CCc2ccc(O)c(OC)c2)ccc1O [THC, Tetrahydrocurcumin] | 46.3 | 81.4 | did not significantly modulate | 2.73 ± 0.15 | 2.33 ± 0.32 | 111 | 52.9 | significant reduction of cell proliferation by THC was only observed 48 h post-treatment |  | IC50 (BJ fibroblast cells; Homo sapiens): 184 ± 31.8 µM
(Z)-2,2′-(((((3-Hydroxy-5-oxohept-3-ene-1,7-diyl)bis(2-methoxy-4,1 phenylene))bis(oxy))bis (carbonyl))bis(azanediyl))diacetic acid [THC-di-Gly] |  |  |  |  |  | > 500 | > 500 |  | > 500 | 
(Z)-2,2′-(((((3-Hydroxy-5-oxohept-3-ene-1,7-diyl)bis(2-methoxy-4,1-phenylene))bis(oxy))bis (carbonyl))bis(azanediyl))bis(3-methylpentanoic acid) [THC-di-Ile] |  |  |  |  |  | > 500 | > 500 |  | > 500 | 
(Z)-2,2′-(((((3-Hydroxy-5-oxohept-3-ene-1,7-diyl)bis(2-methoxy-4,1-phenylene))bis(oxy))bis (carbonyl))bis(azanediyl))bis(3-phenylpropanoic acid) [THC-di-Phe] | 32.8 | 65.2 | significantly inhibited | 5.01 ± 0.64 | 6.07 ± 1.13 | 35.8 | 26.8 | significantly inhibited | 470 ± 20.4 | cell death on co-incubation with BCH vs THC-di-Phe alone, lower concentrations (C6 glioma cells [1]; THC-di-Phe 12.5 and 25 μM, 5 mM BCH): significantly increased cell death; cell death with or without BCH, higher concentrations (C6 glioma cells [1]; THC-di-Phe 50 and 100 μM, 5 mM BCH): comparable cellular death; induction of cellular apoptosis (Hoechst 33342/PI) (C6 glioma cells [6]): observed; concentrations toxic to C6 glioma cells (C6 glioma cells [7]): above 10 µM
(Z)-2,2′-(((((3-Hydroxy-5-oxohept-3-ene-1,7-diyl)bis(2-methoxy-4,1-phenylene))bis(oxy))bis (carbonyl))bis(azanediyl))bis(4-methylpentanoic acid) [THC-di-Leu] |  |  |  |  |  | 350 ± 52.6 | 350 ± 129 |  | > 500 | 

From paper PMC11509005, “Synthesis, Cytotoxicity, and Mechanistic Evaluation of Tetrahydrocurcumin-Amino Acid Conjugates as LAT1-Targeting Anticancer Agents in C6 Glioma Cells” (International Journal of Molecular Sciences, 2024)
